Test results as given in patent US20080219963A1, “Composition Containing Micronutrients With Improved Anti-Oxidant Activity And The Use Thereof” (ACTIMEX S.R.L. AREA Science Park, priority 2005, published 2008).
In brackets after ≈: the same amount, converted by molar mass. Blank lines part the entries; values can stand above or below the compound they belong to.

Key:
[1] = Solubility in buffered water at pH=7 after 24 hours (equilibrium); details: pH 7, aqueous buffer, thermodynamic from solid
Description: An excess of powder is added to buffered water at pH=7 until a precipitate is obtained.

[2] = background statement; cited from earlier work
[3] = Antioxidant activity, ORAC (Oxygen Radical Absorbance Capacity) test; type: biochemical
Description: Antioxidant activity was measured using the ORAC (Oxygen Radical Absorbance Capacity) test.
The test was based on measuring the inhibition induced by an antioxidant on the loss of activity of a fluorescent indicator, in the presence of oxidants.
In practice, given a fluorescent indicator (fluorescein) which loses its fluorescence due to the action of an oxidising agent (AAPH), antioxidant activity was evaluated in terms of maintenance of the fluorescence of the indicator over time, due to the ability of the antioxidant to counteract the action of the oxidising agent.
Antioxidant activity was assessed by spectrofluorometric assay, measuring the decay of the fluorescence of the indicator over time (from 0 to 360 minutes). A measuring the fluorescence of the sodium fluorescein indicator was performed using a spectrofluorimeter at a wavelength of 515 nm.
Antioxidant activity is expressed as the antioxidant power in relation to Trolox® at the same concentration of the samples.

- solubility at 24 h ([1]; buffered water): 2 µg/mL (≈ 2.32 µM)
Compound: COC1=C(OC)C(=O)C(C/C=C(\C)CC/C=C(\C)CC/C=C(\C)CC/C=C(\C)CC/C=C(\C)CC/C=C(\C)CC/C=C(\C)CC/C=C(\C)CC/C=C(\C)CCC=C(C)C)=C(C)C1=O [UBIDECARENONE (alone), ubidecarenone]
- solubility in water or in aqueous environments [2]: < 100 µg/mL
- Relative antiox. activity ([3]; ubidecarenone alone at equal concentration = 1): 1

- solubility at 24 h [1]: 10 µg/mL (≈ 37 µM)
Compound: O=c1c(-c2ccc(O)cc2)coc2cc(O)cc(O)c12 [GENISTEIN (alone), genistein]
- Rel. antiox. activity ([3]; genistein alone at equal concentration = 1): 1

Compound: CC(C)=CCC/C(C)=C/C=C/C(C)=C/C=C/C(C)=C/C=C/C=C(C)/C=C/C=C(C)/C=C/C=C(\C)CCC=C(C)C [LYCOPENE (alone), lycopene]
- Rel. antiox. activity ([3]; lycopene alone at equal concentration = 1): 1

- solubility at 24 h ([1]; buffered water): 150 µg/mL (≈ 657 µM)
Compound: Oc1ccc(C=Cc2cc(O)cc(O)c2)cc1 [RESVERATROL (alone), resveratrol]

Compound: CC1=C(/C=C/C(C)=C/C=C/C(C)=C/C=C/C=C(C)/C=C/C=C(C)/C=C/C2=C(C)C(=O)[C@@H](O)CC2(C)C)C(C)(C)C[C@H](O)C1=O [ASTAXANTIN (alone), astaxantin]
- Rel. antiox. activity ([3]; astaxantin alone at equal concentration = 1): 1

Compound: O=C(O)CCCCC1CCSS1 (stereo not drawn) [LIPOIC ACID (alone), lipoic acid]
- Rel. antiox. activity ([3]; lipoic acid alone at equal concentration = 1): 1
